Measured values published in article PMC8402547, “In Vitro and In Vivo Analysis of Ochratoxin A-Derived Glucuronides and Mercapturic Acids as Biomarkers of Exposure” (Toxins, 2021).
Read-outs that look alike come from different tables or passages of the source.

Columns and labels:
[1] = In vitro incubation of OTA with liver S9 and UDP-glucuronic acid (glucuronide formation); format: in vitro ADME, rat
Description: (§1) Liver S9 fractions from rats (Sprague-Dawley, male, 97 donors, 20 mg/mL) and humans (mixed genders, 50 donors, 20 mg/mL) were obtained from XenoTech (Kansas City, USA). S9 fractions from Goettingen® minipigs and rabbits were prepared in-house based on a modified protocol from Hubbard et al. (1985). Rabbit liver (Blue Vienna x German Giant, female) was obtained from ImmonuGlobe (Himmelstadt, Germany), whereas minipig liver (Goettingen® minipig, male, 42.4 kg bw) was obtained from the University Goettingen, Department of Animal Science.
(§2) For analysis of OTA-derived glucuronides, liver S9 fractions (4 mg/mL) of rats, rabbit, minipigs and humans were incubated with OTA (0.1 mM), uridine-diphosphate-glucuronic acid (5 mM) and magnesium chloride (5 mM) in 100 mM phosphate-buffered saline (pH 7.4) in a total volume of 300 µL at 37 °C for two hours. Control incubations were carried out in the absence of uridine-diphosphate-glucuronic acid. […] Ten microliters (10 µL) of each sample was injected into the LC–MS system and analyzed using the method described below. […]
(§3) The API 2000/Q-Trap mass spectrometer was operated with a Turbo Ion Spray source in negative ion mode with a voltage of −4000 V. Spectral data were recorded with N2 as the heater gas at 450 °C and as the collision gas (CAD = −2) in multiple reaction monitoring mode (MRM).

[2] = as above; format: in vitro ADME; settings: OTA 0.1 mM, UDPGA 5 mM, 37 °C
Description: as §1, §2, §3

[3] = as above; format: in vitro ADME, human
Description: as §1, §2, §3

[4] = 0.5 mg/kg bw oral, within 96 h, cited from earlier work

CC1Cc2c(Cl)cc(C(=O)NC(Cc3ccccc3)C(=O)OC3OC(C(=O)O)C(O)C(O)C3O)c(O)c2C(=O)O1 (centres unmarked) [OTA-Glucuronide]
Formation of OTA glucuronide (m/z transitions 578/402 and 578/358) ([1]; rat liver S9 4 mg/mL, OTA 0.1 mM, UDPGA 5 mM, 37 °C): detected | OTA-glucuronide formed as compared to rabbit and minipig samples (signal intensities) ([1]; rat liver S9 vs rabbit and minipig liver S9): 5–10 times | Formation of OTA glucuronide (m/z transitions 578/402 and 578/358) ([2]; minipig liver S9 4 mg/mL): detected | Formation of OTA glucuronide (m/z transitions 578/402 and 578/358) ([2]; rabbit liver S9 4 mg/mL): detected | Formation of OTA glucuronide (m/z transitions 578/402 and 578/358) ([3]; human liver S9 4 mg/mL, OTA 0.1 mM, UDPGA 5 mM, 37 °C): detected | OTA-glucuronide formed as compared to rabbit and minipig samples (signal intensities) ([3]; human liver S9 vs rabbit and minipig liver S9): 5–10 times

C[C@@H]1Cc2c(Cl)cc(C(=O)N[C@@H](Cc3ccccc3)C(=O)O)c(O)c2C(=O)O1 [OTA, Ochratoxin A]
Fraction of orally administered dose excreted in urine ([4]; female rats): 5.2% | Fraction of orally administered dose excreted in urine ([4]; male rats): 2.1%
